Measurements reported in the supplement of paper PMC5303821, “Major sulfonate transporter Soa1 in Saccharomyces cerevisiae and considerable substrate diversity in its fungal family” (Nature Communications, 2017).

Assays:
[1] = system: Aspergillus nidulans (IAM 2006)_astA; experiment: maximal culture density with compound as sole sulfur source (OD600); higher = better growth; settings: S. cerevisiae S288C/BY sul1Δ sul2Δ soa1Δ with transporter ortholog inserted at SOA1 locus, sulfur-free B medium, 4% glucose, pH 6.5, sole sulfur source
Description: (§1)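 S. cerevisiae sul1Δ sul2Δ soa1Δ strains expressing 20 fungal SOA1 orthologs (or no transporter, 'soa1 del') were grown in liquid sulfur-free B medium, 4% glucose, pH 6.5 (7 mM K2HPO4). The strains were sulfur-starved for 3 days beforehand. Each sulfur compound was the sole sulfur source at 200 µM (sulfate also at 40 mM). OD600 curves of duplicate cultures were averaged and fitted (logistic / Richards, GroFit) to give maximal growth rate, maximal density and lag phase; temperature not stated.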

[2] = system: Aspergillus nidulans_CBF80346; experiment: as above; settings: S. cerevisiae S288C/BY sul1Δ sul2Δ soa1Δ with transporter ortholog inserted at SOA1 locus, sulfur-free B medium, 4% glucose, pH 6.5, sole sulfur source
Description: as §1

[3] = system: Aspergillus nidulans_XP_660670; experiment: as above; settings: S. cerevisiae S288C/BY sul1Δ sul2Δ soa1Δ with transporter ortholog inserted at SOA1 locus, sulfur-free B medium, 4% glucose, pH 6.5, sole sulfur source
Description: as §1

[4] = system: Aspergillus nidulans_XP_661711; experiment: as above; settings: S. cerevisiae S288C/BY sul1Δ sul2Δ soa1Δ with transporter ortholog inserted at SOA1 locus, sulfur-free B medium, 4% glucose, pH 6.5, sole sulfur source
Description: as §1

[5] = system: Aspergillus nidulans_XP_661733; experiment: as above; settings: S. cerevisiae S288C/BY sul1Δ sul2Δ soa1Δ with transporter ortholog inserted at SOA1 locus, sulfur-free B medium, 4% glucose, pH 6.5, sole sulfur source
Description: as §1

[6] = system: Fusarium oxysporum_ENH65823; experiment: as above; settings: sulfur source concentration 200 µM; S. cerevisiae S288C/BY sul1Δ sul2Δ soa1Δ with transporter ortholog inserted at SOA1 locus; sulfur-free B medium, 4% glucose, pH 6.5, sole sulfur source
Description: as §1

[7] = system: Metarhizium robertsii_XP_007821441; experiment: as above; settings: S. cerevisiae S288C/BY sul1Δ sul2Δ soa1Δ with transporter ortholog inserted at SOA1 locus, sulfur-free B medium, 4% glucose, pH 6.5, sole sulfur source
Description: as §1

[8] = system: Metarhizium robertsii_XP_007822519; experiment: as above; settings: S. cerevisiae S288C/BY sul1Δ sul2Δ soa1Δ with transporter ortholog inserted at SOA1 locus, sulfur-free B medium, 4% glucose, pH 6.5, sole sulfur source
Description: as §1

[9] = system: Saccharomyces cerevisiae_SOA1; experiment: as above; settings: S. cerevisiae S288C/BY sul1Δ sul2Δ soa1Δ with transporter ortholog inserted at SOA1 locus, sulfur-free B medium, 4% glucose, pH 6.5, sole sulfur source
Description: as §1

[10] = system: Saccharomyces eubayanus_SOA1; experiment: as above; settings: S. cerevisiae S288C/BY sul1Δ sul2Δ soa1Δ with transporter ortholog inserted at SOA1 locus, sulfur-free B medium, 4% glucose, pH 6.5, sole sulfur source
Description: as §1

[11] = system: Saccharomyces eubayanus_SOA2; experiment: as above; settings: S. cerevisiae S288C/BY sul1Δ sul2Δ soa1Δ with transporter ortholog inserted at SOA1 locus, sulfur-free B medium, 4% glucose, pH 6.5, sole sulfur source
Description: as §1

[12] = system: Saccharomyces uvarum_SOA2; experiment: as above; settings: S. cerevisiae S288C/BY sul1Δ sul2Δ soa1Δ with transporter ortholog inserted at SOA1 locus, sulfur-free B medium, 4% glucose, pH 6.5, sole sulfur source
Description: as §1

soa1 del [13] = experiment: as above; settings: S. cerevisiae S288C/BY sul1Δ sul2Δ soa1Δ with transporter ortholog inserted at SOA1 locus, sulfur-free B medium, 4% glucose, pH 6.5, sole sulfur source
Description: as §1

[14] = system: Aspergillus nidulans (IAM 2006)_astA; experiment: maximal growth rate with compound as sole sulfur source (OD600 per h); higher = better growth / uptake of the sulfur source; settings: S. cerevisiae S288C/BY sul1Δ sul2Δ soa1Δ with transporter ortholog inserted at SOA1 locus, sulfur-free B medium, 4% glucose, pH 6.5, sole sulfur source
Description: as §1

[15] = system: Aspergillus nidulans_CBF74694; experiment: as above; settings: S. cerevisiae S288C/BY sul1Δ sul2Δ soa1Δ with transporter ortholog inserted at SOA1 locus, sulfur-free B medium, 4% glucose, pH 6.5, sole sulfur source
Description: as §1

[16] = system: Aspergillus nidulans_CBF80346; experiment: as above; settings: S. cerevisiae S288C/BY sul1Δ sul2Δ soa1Δ with transporter ortholog inserted at SOA1 locus, sulfur-free B medium, 4% glucose, pH 6.5, sole sulfur source
Description: as §1

[17] = system: Aspergillus nidulans_XP_660563; experiment: as above; settings: S. cerevisiae S288C/BY sul1Δ sul2Δ soa1Δ with transporter ortholog inserted at SOA1 locus, sulfur-free B medium, 4% glucose, pH 6.5, sole sulfur source
Description: as §1

[18] = system: Aspergillus nidulans_XP_660670; experiment: as above; settings: S. cerevisiae S288C/BY sul1Δ sul2Δ soa1Δ with transporter ortholog inserted at SOA1 locus, sulfur-free B medium, 4% glucose, pH 6.5, sole sulfur source
Description: as §1

[19] = system: Aspergillus nidulans_XP_661711; experiment: as above; settings: S. cerevisiae S288C/BY sul1Δ sul2Δ soa1Δ with transporter ortholog inserted at SOA1 locus, sulfur-free B medium, 4% glucose, pH 6.5, sole sulfur source
Description: as §1

[20] = system: Aspergillus nidulans_XP_661733; experiment: as above; settings: S. cerevisiae S288C/BY sul1Δ sul2Δ soa1Δ with transporter ortholog inserted at SOA1 locus, sulfur-free B medium, 4% glucose, pH 6.5, sole sulfur source
Description: as §1

[21] = system: Aspergillus nidulans_XP_681611; experiment: as above; settings: S. cerevisiae S288C/BY sul1Δ sul2Δ soa1Δ with transporter ortholog inserted at SOA1 locus, sulfur-free B medium, 4% glucose, pH 6.5, sole sulfur source
Description: as §1

[22] = system: Fusarium oxysporum_ENH65823; experiment: as above; settings: S. cerevisiae S288C/BY sul1Δ sul2Δ soa1Δ with transporter ortholog inserted at SOA1 locus, sulfur-free B medium, 4% glucose, pH 6.5, sole sulfur source
Description: as §1

[23] = system: Metarhizium robertsii_XP_007821441; experiment: as above; settings: S. cerevisiae S288C/BY sul1Δ sul2Δ soa1Δ with transporter ortholog inserted at SOA1 locus, sulfur-free B medium, 4% glucose, pH 6.5, sole sulfur source
Description: as §1

[24] = system: Metarhizium robertsii_XP_007822519; experiment: as above; settings: S. cerevisiae S288C/BY sul1Δ sul2Δ soa1Δ with transporter ortholog inserted at SOA1 locus, sulfur-free B medium, 4% glucose, pH 6.5, sole sulfur source
Description: as §1

[25] = system: Metarhizium robertsii_XP_007823832; experiment: as above; settings: S. cerevisiae S288C/BY sul1Δ sul2Δ soa1Δ with transporter ortholog inserted at SOA1 locus, sulfur-free B medium, 4% glucose, pH 6.5, sole sulfur source
Description: as §1

[26] = system: Ogataea parapolymorpha_XP_013932458; experiment: as above; settings: S. cerevisiae S288C/BY sul1Δ sul2Δ soa1Δ with transporter ortholog inserted at SOA1 locus, sulfur-free B medium, 4% glucose, pH 6.5, sole sulfur source
Description: as §1

[27] = system: Ogataea parapolymorpha_XP_013935289; experiment: as above; settings: S. cerevisiae S288C/BY sul1Δ sul2Δ soa1Δ with transporter ortholog inserted at SOA1 locus, sulfur-free B medium, 4% glucose, pH 6.5, sole sulfur source
Description: as §1

[28] = system: Ogataea parapolymorpha_XP_013936897; experiment: as above; settings: S. cerevisiae S288C/BY sul1Δ sul2Δ soa1Δ with transporter ortholog inserted at SOA1 locus, sulfur-free B medium, 4% glucose, pH 6.5, sole sulfur source
Description: as §1

[29] = system: Saccharomyces cerevisiae_SOA1; experiment: as above; settings: S. cerevisiae S288C/BY sul1Δ sul2Δ soa1Δ with transporter ortholog inserted at SOA1 locus, sulfur-free B medium, 4% glucose, pH 6.5, sole sulfur source
Description: as §1

[30] = system: Saccharomyces eubayanus_SOA1; experiment: as above; settings: S. cerevisiae S288C/BY sul1Δ sul2Δ soa1Δ with transporter ortholog inserted at SOA1 locus, sulfur-free B medium, 4% glucose, pH 6.5, sole sulfur source
Description: as §1

[31] = system: Saccharomyces eubayanus_SOA2; experiment: as above; settings: S. cerevisiae S288C/BY sul1Δ sul2Δ soa1Δ with transporter ortholog inserted at SOA1 locus, sulfur-free B medium, 4% glucose, pH 6.5, sole sulfur source
Description: as §1

[32] = system: Saccharomyces uvarum_SOA1; experiment: as above; settings: S. cerevisiae S288C/BY sul1Δ sul2Δ soa1Δ with transporter ortholog inserted at SOA1 locus, sulfur-free B medium, 4% glucose, pH 6.5, sole sulfur source
Description: as §1

[33] = system: Saccharomyces uvarum_SOA2; experiment: as above; settings: S. cerevisiae S288C/BY sul1Δ sul2Δ soa1Δ with transporter ortholog inserted at SOA1 locus, sulfur-free B medium, 4% glucose, pH 6.5, sole sulfur source
Description: as §1

soa1 del [34] = experiment: as above; settings: S. cerevisiae S288C/BY sul1Δ sul2Δ soa1Δ with transporter ortholog inserted at SOA1 locus, sulfur-free B medium, 4% glucose, pH 6.5, sole sulfur source
Description: as §1

[35] = sulfur source concentration 200 µM
[36] = sulfur source concentration 40000 µM

Compound: O=S(=O)(O)O [sulfate]
- maximal culture density [1, 35]: 1.6
- maximal culture density [1, 36]: 1.68
- maximal culture density [2, 35]: 0.243
- maximal culture density [2, 36]: 0.216
- maximal culture density [3, 35]: 0.223
- maximal culture density [3, 36]: 0.277
- maximal culture density [4, 35]: 0.224
- maximal culture density [4, 36]: 0.382
- maximal culture density [5, 35]: 0.264
- maximal culture density [5, 36]: 1.57
- maximal culture density [6]: 0.233
- maximal culture density [7, 35]: 0.215
- maximal culture density [7, 36]: 0.225
- maximal culture density [8, 35]: 0.186
- maximal culture density [8, 36]: 0.213
- maximal culture density [9, 35]: 0.274
- maximal culture density [9, 36]: 1.71
- maximal culture density [10, 35]: 0.251
- maximal culture density [10, 36]: 1.62
- maximal culture density [11, 35]: 0.201
- maximal culture density [11, 36]: 0.21
- maximal culture density [12, 35]: 0.199
- maximal culture density [12, 36]: 0.212
- maximal culture density (soa1 del [13]; [35]): 0.212
- maximal culture density (soa1 del [13]; [36]): 0.222
- maximal growth rate [14, 35]: 0.0953
- maximal growth rate [14, 36]: 0.102
- maximal growth rate [15, 35]: 0.00273
- maximal growth rate [15, 36]: 0.00346
- maximal growth rate [16, 35]: 0.00472
- maximal growth rate [16, 36]: 0.00348
- maximal growth rate [17, 35]: 0.00621
- maximal growth rate [17, 36]: 0.00638
- maximal growth rate [18, 35]: 0.00401
- maximal growth rate [18, 36]: 0.00492
- maximal growth rate [19, 35]: 0.00398
- maximal growth rate [19, 36]: 0.00545
- maximal growth rate [20, 35]: 0.00457
- maximal growth rate [20, 36]: 0.0588
- maximal growth rate [21, 35]: 0.00615
- maximal growth rate [21, 36]: 0.0061
- maximal growth rate [22, 35]: 0.00376
- maximal growth rate [22, 36]: 0.0142
- maximal growth rate [23, 35]: 0.00309
- maximal growth rate [23, 36]: 0.00378
- maximal growth rate [24, 35]: 0.00347
- maximal growth rate [24, 36]: 0.00386
- maximal growth rate [25, 35]: 0.0813
- maximal growth rate [25, 36]: 0.088
- maximal growth rate [26, 35]: 0.00477
- maximal growth rate [26, 36]: 0.00353
- maximal growth rate [27, 35]: 0.0777
- maximal growth rate [27, 36]: 0.124
- maximal growth rate [28, 35]: 0.00477
- maximal growth rate [28, 36]: 0.00462
- maximal growth rate [29, 35]: 0.00588
- maximal growth rate [29, 36]: 0.123
- maximal growth rate [30, 35]: 0.00395
- maximal growth rate [30, 36]: 0.0997
- maximal growth rate [31, 35]: 0.00313
- maximal growth rate [31, 36]: 0.00349
- maximal growth rate [32, 35]: 0.0032
- maximal growth rate [32, 36]: 0.0989
- maximal growth rate [33, 35]: 0.00324
- maximal growth rate [33, 36]: 0.00336
- maximal growth rate (soa1 del [34]; [35]): 0.00368
- maximal growth rate (soa1 del [34]; [36]): 0.0039
